# Laboratory results published in US20040127428A1, “Use of D-ribose, including as a topical vehicle, to promote faster healing, including from surgical procedures” (priority 2002, published 2004).
# Assays:
# actinic keratoses = experiment: daily oral intake of D-ribose by the inventor, actinic keratoses; type: in vivo, human; settings: 10 grams of D-ribose by mouth daily, after several months; inventor on themself
# Source text: Another use for D-ribose is with certain skin lesions that are the result of solar-caused degeneration of the skin by exposure to the sun. This condition is commonly referred to as actinic keratosis. […] Since 5% of these lesions degenerate into squamous cell carcinomas, the use of ribose alone would be useful. On the other hand, it also may be used as part of a topical formulation. Topical 5-fluorouracil formulations (5-fluorouracil being a pyrimidine analogue with anti-neoplastic action because certain neoplasms incorporate uracil into their ribonucleic acid more readily than in normal cells) have been used to eradicate actinic keratosis in place of “spot” cryosurgery and curettage, with as much as 5% fluorouracil used. Recently there came on the market a new microsphere-based formulation using a microsphere vehicle called Microsponge® in a topical cream containing only 0.5% fluorouracil. It is applied once daily with good results and less than 1/40th the systemic fluorouracil absorption compared to that of 5% fluorouracil. The course of treatment ranged over a 4-week period. While using D-ribose systemically by itself works slowly on presumed, non-malignant actinic keratoses and senile keratoses when malignancy is questioned (as it always must be even with a histological or clinical diagnosis to the contrary), using D-ribose systemically is not enough for every case.
# wound or burn = experiment: healing of wounds and burns with ribose, alone or with antibiotics; type: in vivo; settings: ribose by itself, taken internally and/or placed on the skin
# Source text: TENS devices were part of patent application No. 09/545,121 as one of the non-living source energy devices and how they relate to D-ribose. Shortly before the turn of the 21st century, an important ATP precursor, D-ribose, became commercially available at prices low enough to enable it to be mass marketed. Before this Carniglia, et al, in U.S. Pat. Nos. 4,923,851 and 5,391,550 taught that ribose along with other nutrients helped heal induced skin lesions in mice but only as one of several listed precursors. […] The reason for this is that ribose is not available in quantity in food like other nutrients are. This component of ATP must be synthesized from glucose in the mitochondria in the glucose hexophosphate shunt (also called the pentose phosphate pathway) where a carbon atom is removed tediously by enzymatic action from glucose and phosphorylated over from 72 to 96 hours to provide the phosphorylated ribose radical. […]
compound,measurement,setting,value
O=C[C@H](O)[C@H](O)[C@H](O)CO [D-ribose],large actinic keratoses on forehead and wrists,actinic keratoses,simply disappeared
same,healing,wound or burn,helps healing significantly
